Consider one compound from US7652071B2, “Penetration of active substances into cells and organs” (Alpha-Biocare GmbH, priority 2003, dated 2010).

In this assay the test system is Angiostrongylus cantonensis. Put plainly: Detection of worm stages in the brain of Wistar rats experimentally infected with Angiostrongylus cantonensis after oral treatment. The class given is in vivo. How it is done: Each rat was infected with precisely 60 L3 larvae. From day 5 post-infection onwards, mebendazole was administered once daily on three successive days at the dosage rates and in the formulations stated. The worms were detected on day 21 post-infection.

Consider `COC(=O)Nc1nc2ccc(C(=O)c3ccccc3)cc2[nH]1` [Mebendazole, mebendazole], for which, for the setting “aqueous suspension, mebendazole 10 mg/kg body weight oral, once daily on three successive days from day 5 post-infection, worms detected day 21, % of infection control (55 worms = 100%)”, the “Worm detection in the brain” value is 98.2%. Where the note is “mebendazole with the aid of the carrier system, at a more than 30-fold reduced mebendazole dose”, the “Worm reduction in the brain” value was “significant worm reduction in the brain”.
